# Results taken from publication PMC8871626, “UPLC-PDA-ESI-QTOF-MS/MS fingerprint of purified flavonoid enriched fraction of Bryophyllum pinnatum; antioxidant properties, anticholinesterase activity and in silico studies” (Pharmaceutical Biology, 2021).
# Key:
# Type in all cases: biochemical
# [1] = DPPH radical scavenging assay; details: for DPPH radical IC50: 3.125–100 µg/mL, 30 min in the dark, absorbance 518 nm, triplicate; for IC50: IC50 values in µM presented for comparison
# Procedure: Based on the principle, when DPPH reacts with an antioxidant compound that can donate hydrogen, it is reduced. The change in colour from deep violet to golden/light yellow can be measured at 518 nm. Briefly, 1 mL of 0.3 mM of DPPH solution was added to 1 mL of each of the test solutions. […] The mixtures were vortexed thoroughly and allowed to stand at room temperature in the dark for 30 min, […]. The absorbance values were recorded at 518 nm, and converted into percentage antioxidant activity, using the formula below: Results were expressed as a percentage of inhibitions (100%). […] Each test was carried out in triplicates.
# The % DPPH scavenging effect of the antioxidant was calculated as follows: (1) %DPPH scavenging effect=[A control – A sample/Acontrol]× 100
# [2] = system: Fe2+-induced lipid peroxidation in rat brain homogenate; experiment: Fe2+-induced lipid peroxidation (TBARS) assay in brain homogenate; details: for Lipid peroxidation IC50: FeSO4, 37 °C 30 min, TBARS 532 nm; for IC50: IC50 values in µM presented for comparison, read-out: LP (IC50 in µM)
# Procedure: Thiobarbituric acid reactive species (TBARS) assay was used to measure the lipid peroxide formed using brain tissue homogenates as lipid-rich media, as described by Ruberto et al. ([2000]) with slight modifications. […] Thereafter, 0.05 mL of FeSO4 was added and the mixture was incubated at 37 °C for 30 min. Then, 1.5 mL of acetic acid was added, followed by 1.5 mL of TBA in SDS. The resulting mixture was mixed and heated at 95 °C for 60 min. After cooling, 5 mL of butanol was added and the mixture was centrifuged at 3000 rpm for 10 min. The absorbance of the organic upper layer was measured at 532 nm and the percentage inhibition was calculated with the formula: (2) %inhibition=[A control – A sample/Acontrol]×100
# [3] = biological target: T1, rat serum BuChE (Rattus norvegicus, UniProt Q9JKC1); experiment: BuChE inhibition, Ellman's colorimetric method; details: BuChE IC50, rat blood enzyme, butyrylthiocholine iodide
# T1 construct: from tissue; host or cells: rat blood (serum)
# T1 sequence (Q9JKC1 24-597): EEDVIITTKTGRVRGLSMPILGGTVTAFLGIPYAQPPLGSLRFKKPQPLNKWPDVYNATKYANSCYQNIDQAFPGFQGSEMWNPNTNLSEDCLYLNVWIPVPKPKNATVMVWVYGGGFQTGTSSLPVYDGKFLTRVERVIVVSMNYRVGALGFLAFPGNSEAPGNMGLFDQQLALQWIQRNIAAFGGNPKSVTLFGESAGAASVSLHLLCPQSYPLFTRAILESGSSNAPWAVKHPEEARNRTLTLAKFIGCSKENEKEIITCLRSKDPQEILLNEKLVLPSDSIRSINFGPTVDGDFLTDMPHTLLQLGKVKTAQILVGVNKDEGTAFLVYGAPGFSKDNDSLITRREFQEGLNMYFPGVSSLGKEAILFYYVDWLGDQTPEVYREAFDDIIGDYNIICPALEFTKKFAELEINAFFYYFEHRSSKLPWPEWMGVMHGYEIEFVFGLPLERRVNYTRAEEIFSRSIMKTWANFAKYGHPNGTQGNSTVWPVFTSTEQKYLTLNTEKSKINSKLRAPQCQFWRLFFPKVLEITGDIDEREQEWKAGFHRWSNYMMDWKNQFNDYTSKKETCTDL
# Procedure: Whole-brain tissue from adult male Wistar rat was used as a source of AChE enzyme and a lipid-rich media for lipid peroxidation assay while rat blood tissue was used as a source of BuChE enzyme.
# For the enzyme source, the rat brains were homogenized in a homogenizer with 10 volumes of a homogenization buffer (10 mM Tris-HCl, pH 7.2) containing 1 M NaCl, 50 mM MgCl2 and1% Triton X-100 and centrifuged at 10,000 rpm for 30 min. The resulting supernatants were collected, and the solution of these supernatants was used as an enzyme source. The temperature was maintained at 4 °C throughout the excretion procedure. The rate of AChE hydrolysis was monitored spectrophotometrically. […] Absorbance at 405 nm was recorded immediately after adding Ellman’s reaction mixture (3.5 mL; 0.5 mM acetylthiocholine, 1 mM DTNB) in a 50 mM sodium phosphate buffer (pH 8.0) to the reaction mixture. Readings were repeated for 30 min to verify the reaction. […] The percentage of AChE inhibition was calculated using the following formula: (3) %Cholinesterase inhibition=[A control – A sample/Acontrol]×100
# Assessment of BuChE inhibition was performed as described in Equation (3) except that the enzyme solution was (100 μL) acetylthiocholine iodide was replaced with butyrylthiocholine iodide. All other reagents and conditions remained the same.
SMILES,DPPH radical IC50 [1] [µg/mL],IC50 [1] [µM],Lipid peroxidation IC50 [2] [µg/mL],IC50 [2] [µM],IC50 [3] [µM]
"O=C1O[C@H]([C@@H](O)CO)C(O)=C1O [Ascorbic acid, ascorbic acid]",10.186 ± 0.14,57.8 ± 0.827,14.393 ± 0.54,81.72 ± 0.309,–
O=c1c(O)c(-c2ccc(O)c(O)c2)oc2cc(O)cc(O)c12 [Quercetin],13.803 ± 0.34,45.7 ± 1.13,25.242 ± 1.97,83.51 ± 0.654,80.5
